Measured values reported in doi:10.1101/2024.08.19.608619, “Discovery of potent SARS-CoV-2 nsp3 macrodomain inhibitors uncovers lack of translation to cellular antiviral response” (bioRxiv, 2024).
Where two headings read alike, the source gives them in different places.

What was measured:
DRAK1(h) = molecular target: T1, DRAK1(h) (Homo sapiens, UniProt Q9UEE5); experiment: biochemical; design: In vitro kinase panel profiling, per cent remaining kinase activity at 10 uM; conditions: atp_concentration=10, read-out: % of control remaining
T1 construct: gene STK17A
T1 sequence (Q9UEE5 1-414): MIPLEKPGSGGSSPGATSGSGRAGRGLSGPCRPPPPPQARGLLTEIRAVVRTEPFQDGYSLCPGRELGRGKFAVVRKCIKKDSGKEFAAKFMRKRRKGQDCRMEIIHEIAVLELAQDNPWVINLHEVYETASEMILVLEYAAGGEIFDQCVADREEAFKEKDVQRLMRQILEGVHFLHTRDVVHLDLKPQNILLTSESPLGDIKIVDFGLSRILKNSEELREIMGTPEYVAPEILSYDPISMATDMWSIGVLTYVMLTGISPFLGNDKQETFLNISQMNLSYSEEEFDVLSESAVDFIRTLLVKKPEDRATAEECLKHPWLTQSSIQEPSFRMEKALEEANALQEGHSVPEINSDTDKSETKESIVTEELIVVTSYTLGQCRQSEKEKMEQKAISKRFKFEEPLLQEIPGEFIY
Text: (§1) We derisk potential for off-target activity by profiling the compound in a CEREP panel, a standard secondary pharmacology assessment, as well as a kinase panel to derisk a potential hinge-binding motif in our leads, and a PARP panel to derisk activity against human […]. Reassuringly, the compounds are selective, with the only off-targets being moderate human CHRM2 and KOR receptors activity associated with ASAP-0011198.

PKCθ(h) = molecular target: T2, PKCθ(h) (Homo sapiens, UniProt Q04759); experiment: biochemical; design: In vitro kinase panel profiling, per cent remaining kinase activity at 10 uM; conditions: atp_concentration=15, read-out: % of control remaining
T2 construct: gene PRKCQ
Text: as §1

PKCα(h) = molecular target: T3, PKCα(h) (Homo sapiens, UniProt P17252); experiment: biochemical; design: In vitro kinase panel profiling, per cent remaining kinase activity at 10 uM; conditions: atp_concentration=45, read-out: % of control remaining
T3 construct: gene PRKCA
Text: as §1

MAPKAP-K2(h) = molecular target: T4, MAPKAP-K2(h) (Homo sapiens, UniProt P49137); experiment: biochemical; design: In vitro kinase panel profiling, per cent remaining kinase activity at 10 uM; conditions: atp_concentration=90, read-out: % of control remaining
T4 construct: gene MAPKAPK2
Text: as §1

ASK1(h) = molecular target: T5, ASK1(h) (Homo sapiens, UniProt Q99683); experiment: biochemical; design: In vitro kinase panel profiling, per cent remaining kinase activity at 10 uM; conditions: atp_concentration=200, read-out: % of control remaining
T5 construct: gene MAP3K5
T5 sequence (Q99683 1-1374): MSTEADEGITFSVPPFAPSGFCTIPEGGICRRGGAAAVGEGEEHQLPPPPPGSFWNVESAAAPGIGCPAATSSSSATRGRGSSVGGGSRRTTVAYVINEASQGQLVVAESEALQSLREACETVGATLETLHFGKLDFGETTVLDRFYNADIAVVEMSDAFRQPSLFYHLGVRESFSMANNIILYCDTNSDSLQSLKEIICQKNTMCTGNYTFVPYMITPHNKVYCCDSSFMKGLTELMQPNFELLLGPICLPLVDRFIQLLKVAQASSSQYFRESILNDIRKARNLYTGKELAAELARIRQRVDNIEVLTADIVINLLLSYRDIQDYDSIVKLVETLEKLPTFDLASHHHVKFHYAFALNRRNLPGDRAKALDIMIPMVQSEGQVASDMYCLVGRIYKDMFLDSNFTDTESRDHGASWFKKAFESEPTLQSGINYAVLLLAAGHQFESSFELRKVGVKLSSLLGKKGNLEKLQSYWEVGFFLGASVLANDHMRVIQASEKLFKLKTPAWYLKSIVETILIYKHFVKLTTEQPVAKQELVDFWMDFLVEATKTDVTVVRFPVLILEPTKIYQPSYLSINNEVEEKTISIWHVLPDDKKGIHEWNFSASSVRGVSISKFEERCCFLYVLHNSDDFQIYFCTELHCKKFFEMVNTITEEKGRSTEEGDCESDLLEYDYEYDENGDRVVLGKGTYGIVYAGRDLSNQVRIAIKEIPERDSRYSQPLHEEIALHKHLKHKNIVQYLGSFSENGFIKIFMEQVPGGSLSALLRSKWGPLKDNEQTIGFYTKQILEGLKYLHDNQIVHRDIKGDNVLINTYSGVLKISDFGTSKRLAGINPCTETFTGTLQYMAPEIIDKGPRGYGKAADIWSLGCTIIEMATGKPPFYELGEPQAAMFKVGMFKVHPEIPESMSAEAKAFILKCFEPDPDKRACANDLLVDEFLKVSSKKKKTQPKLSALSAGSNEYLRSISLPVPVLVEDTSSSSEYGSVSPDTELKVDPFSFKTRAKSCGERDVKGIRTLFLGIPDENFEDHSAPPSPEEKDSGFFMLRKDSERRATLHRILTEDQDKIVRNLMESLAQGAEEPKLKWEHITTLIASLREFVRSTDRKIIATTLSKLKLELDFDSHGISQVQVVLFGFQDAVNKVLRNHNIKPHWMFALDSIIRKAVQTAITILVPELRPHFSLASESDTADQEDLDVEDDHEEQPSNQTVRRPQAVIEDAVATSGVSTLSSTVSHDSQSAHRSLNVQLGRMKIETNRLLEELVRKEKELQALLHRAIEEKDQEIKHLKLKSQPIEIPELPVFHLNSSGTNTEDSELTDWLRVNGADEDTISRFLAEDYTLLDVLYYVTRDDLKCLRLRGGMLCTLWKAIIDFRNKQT
Text: as §1

CDK6/cyclinD3(h) = CDK6/cyclinD3(h) (Homo sapiens, UniProt Q00534); experiment: biochemical; design: In vitro kinase panel profiling, per cent remaining kinase activity at 10 uM; conditions: atp_concentration=200, read-out: % of control remaining
Text: as §1

beta1 (h) = molecular target: T6, beta1 (h) (Homo sapiens, UniProt P08588); experiment: In vitro CEREP profiling, beta1 (h) (agonist radioligand); type: binding; conditions: test compound 10 uM
T6 construct: purchased Eurofins Cerep (SafetyScreen44), recognised from the panel format
Text: (§2) Supplement media-1.zip/Safety_Panel_Profile.csv, table | column: perc_inhibition

hERG = hERG (Homo sapiens, UniProt Q12809); experiment: In vitro hERG cardiotoxocity; conditions: for IC50: top test concentration 30 uM; for perc_inhibition_top_conc: at top test concentration 30 uM
Text: Supplement media-1.zip/Cardiotoxicity.csv, table | column: ic50; perc_inhibition_top_conc

BZD (central) = experiment: In vitro CEREP profiling, BZD (central) (agonist radioligand); type: binding; conditions: test compound 10 uM
Text: as §2

Sequence of hERG (Q12809 whole entry): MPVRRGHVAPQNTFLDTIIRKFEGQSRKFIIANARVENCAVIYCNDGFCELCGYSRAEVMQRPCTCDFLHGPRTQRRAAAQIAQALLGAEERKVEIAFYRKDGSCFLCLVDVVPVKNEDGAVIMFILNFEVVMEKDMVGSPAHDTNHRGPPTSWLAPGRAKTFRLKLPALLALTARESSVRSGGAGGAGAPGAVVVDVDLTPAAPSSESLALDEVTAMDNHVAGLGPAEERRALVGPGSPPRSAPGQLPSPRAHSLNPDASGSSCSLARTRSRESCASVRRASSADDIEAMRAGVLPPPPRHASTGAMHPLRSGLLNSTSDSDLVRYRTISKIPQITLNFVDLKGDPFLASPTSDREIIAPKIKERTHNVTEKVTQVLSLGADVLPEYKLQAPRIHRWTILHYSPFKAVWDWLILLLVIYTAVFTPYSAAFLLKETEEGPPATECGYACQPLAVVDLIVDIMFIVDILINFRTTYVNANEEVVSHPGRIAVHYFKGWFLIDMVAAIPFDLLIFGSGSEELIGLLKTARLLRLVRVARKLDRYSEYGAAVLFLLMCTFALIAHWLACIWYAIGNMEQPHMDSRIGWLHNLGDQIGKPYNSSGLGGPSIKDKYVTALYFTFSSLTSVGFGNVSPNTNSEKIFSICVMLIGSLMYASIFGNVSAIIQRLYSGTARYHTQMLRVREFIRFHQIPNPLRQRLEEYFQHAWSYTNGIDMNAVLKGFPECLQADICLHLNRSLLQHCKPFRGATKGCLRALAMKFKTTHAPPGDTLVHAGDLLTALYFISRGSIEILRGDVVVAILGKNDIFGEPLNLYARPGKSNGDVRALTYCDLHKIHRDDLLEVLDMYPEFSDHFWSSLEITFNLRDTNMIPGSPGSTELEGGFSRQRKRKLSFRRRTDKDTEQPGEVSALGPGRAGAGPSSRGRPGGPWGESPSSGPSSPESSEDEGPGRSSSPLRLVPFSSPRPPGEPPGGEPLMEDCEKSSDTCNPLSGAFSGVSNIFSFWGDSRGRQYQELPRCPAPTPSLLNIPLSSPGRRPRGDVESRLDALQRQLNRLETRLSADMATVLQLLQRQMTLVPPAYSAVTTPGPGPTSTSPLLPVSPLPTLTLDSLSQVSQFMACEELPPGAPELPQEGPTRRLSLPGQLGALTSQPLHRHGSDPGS
T6 sequence (P08588 whole entry): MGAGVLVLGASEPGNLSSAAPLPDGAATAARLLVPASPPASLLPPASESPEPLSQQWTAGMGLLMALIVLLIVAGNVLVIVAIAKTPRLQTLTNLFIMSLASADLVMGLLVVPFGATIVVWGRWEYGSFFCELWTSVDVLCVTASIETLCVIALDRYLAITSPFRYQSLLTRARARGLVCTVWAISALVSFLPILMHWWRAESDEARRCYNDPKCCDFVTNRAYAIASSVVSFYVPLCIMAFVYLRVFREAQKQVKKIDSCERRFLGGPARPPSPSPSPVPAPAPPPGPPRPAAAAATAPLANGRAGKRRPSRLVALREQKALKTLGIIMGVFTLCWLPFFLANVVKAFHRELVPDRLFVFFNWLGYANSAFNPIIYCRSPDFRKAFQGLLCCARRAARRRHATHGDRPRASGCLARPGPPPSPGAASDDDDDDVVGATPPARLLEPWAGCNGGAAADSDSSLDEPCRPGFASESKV
T4 sequence (P49137 whole entry): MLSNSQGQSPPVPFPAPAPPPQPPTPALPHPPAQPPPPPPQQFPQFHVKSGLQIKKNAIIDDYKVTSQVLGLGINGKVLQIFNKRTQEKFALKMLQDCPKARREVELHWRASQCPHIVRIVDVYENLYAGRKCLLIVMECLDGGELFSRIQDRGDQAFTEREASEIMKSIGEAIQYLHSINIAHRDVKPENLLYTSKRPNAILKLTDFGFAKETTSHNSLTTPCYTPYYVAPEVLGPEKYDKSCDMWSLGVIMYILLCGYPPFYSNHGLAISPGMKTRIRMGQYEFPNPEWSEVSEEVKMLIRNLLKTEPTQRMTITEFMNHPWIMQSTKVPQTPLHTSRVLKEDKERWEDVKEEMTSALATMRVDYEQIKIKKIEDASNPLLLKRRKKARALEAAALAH
Sequence of CDK6/cyclinD3(h) (Q00534 whole entry): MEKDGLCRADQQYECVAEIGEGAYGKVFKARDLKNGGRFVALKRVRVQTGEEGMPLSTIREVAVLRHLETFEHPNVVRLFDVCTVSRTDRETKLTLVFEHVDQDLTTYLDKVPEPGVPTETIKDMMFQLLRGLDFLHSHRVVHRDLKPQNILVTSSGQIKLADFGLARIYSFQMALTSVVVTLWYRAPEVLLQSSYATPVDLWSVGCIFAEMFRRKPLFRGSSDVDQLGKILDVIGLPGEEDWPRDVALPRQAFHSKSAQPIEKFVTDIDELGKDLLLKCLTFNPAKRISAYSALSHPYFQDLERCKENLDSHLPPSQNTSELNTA
Sequence of CDK6/cyclinD3(h) (P30281 whole entry partner): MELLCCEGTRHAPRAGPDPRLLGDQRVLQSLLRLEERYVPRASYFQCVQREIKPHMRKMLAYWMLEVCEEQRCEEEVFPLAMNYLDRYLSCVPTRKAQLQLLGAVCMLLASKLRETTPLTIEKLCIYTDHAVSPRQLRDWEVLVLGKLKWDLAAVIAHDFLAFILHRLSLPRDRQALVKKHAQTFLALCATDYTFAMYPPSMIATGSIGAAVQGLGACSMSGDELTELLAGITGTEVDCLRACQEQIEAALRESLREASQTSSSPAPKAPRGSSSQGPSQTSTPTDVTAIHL
T2 sequence (Q04759 whole entry): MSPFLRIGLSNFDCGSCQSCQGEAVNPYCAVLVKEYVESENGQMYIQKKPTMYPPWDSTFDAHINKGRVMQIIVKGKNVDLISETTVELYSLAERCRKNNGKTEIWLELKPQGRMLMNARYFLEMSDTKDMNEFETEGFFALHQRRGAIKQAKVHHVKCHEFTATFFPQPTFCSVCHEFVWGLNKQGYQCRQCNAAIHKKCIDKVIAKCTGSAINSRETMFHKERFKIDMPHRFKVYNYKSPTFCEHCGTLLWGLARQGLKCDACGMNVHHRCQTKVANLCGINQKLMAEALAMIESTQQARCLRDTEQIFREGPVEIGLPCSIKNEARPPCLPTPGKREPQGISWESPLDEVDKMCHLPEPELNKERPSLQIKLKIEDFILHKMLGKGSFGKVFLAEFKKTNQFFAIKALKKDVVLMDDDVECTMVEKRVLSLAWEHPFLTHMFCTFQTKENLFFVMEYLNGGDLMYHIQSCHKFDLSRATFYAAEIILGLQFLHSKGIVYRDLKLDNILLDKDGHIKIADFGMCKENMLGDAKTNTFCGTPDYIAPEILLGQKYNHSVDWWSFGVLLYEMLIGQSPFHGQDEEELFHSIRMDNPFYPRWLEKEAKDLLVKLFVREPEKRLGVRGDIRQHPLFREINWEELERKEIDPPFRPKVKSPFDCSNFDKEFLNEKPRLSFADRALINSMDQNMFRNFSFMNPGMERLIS

## CC(C)C(Nc1ncnc2[nH]ccc12)c1ccc2c(c1)S(=O)(=O)CCC2 (stereo not drawn) [ASAP-0008327]
DRAK1(h); batch_name=ASAP-0008327-001
  remaining activity at 10 µM: 96%
PKCθ(h); batch_name=ASAP-0008327-001
  remaining activity at 10 µM: 101%
PKCα(h); batch_name=ASAP-0008327-001
  remaining activity at 10 µM: 104%
MAPKAP-K2(h); batch_name=ASAP-0008327-001
  remaining activity at 10 µM: 105%
ASK1(h); batch_name=ASAP-0008327-001
  remaining activity at 10 µM: 108%
CDK6/cyclinD3(h); batch_name=ASAP-0008327-001
  remaining activity at 10 µM: 99%

## COc1ccc([C@@H](Cc2nnn[nH]2)NC(=O)c2ncnc3[nH]ccc23)cc1 [ASAP-0008340]
DRAK1(h); batch_name=ASAP-0008340-001
  remaining activity at 10 µM: 111%
PKCθ(h); batch_name=ASAP-0008340-001
  remaining activity at 10 µM: 90%
PKCα(h); batch_name=ASAP-0008340-001
  remaining activity at 10 µM: 95%
MAPKAP-K2(h); batch_name=ASAP-0008340-001
  remaining activity at 10 µM: 92%
ASK1(h); batch_name=ASAP-0008340-001
  remaining activity at 10 µM: 101%
CDK6/cyclinD3(h); batch_name=ASAP-0008340-001
  remaining activity at 10 µM: 100%

## CC(C)[C@@H](Nc1ncnc2[nH]c(-c3cnn(C)c3C#N)cc12)c1ccc2c(n1)OCCO2 [ASAP-0008418]
DRAK1(h); batch_name=ASAP-0008418-001
  remaining activity at 10 µM: 101%
PKCθ(h); batch_name=ASAP-0008418-001
  remaining activity at 10 µM: 93%
PKCα(h); batch_name=ASAP-0008418-001
  remaining activity at 10 µM: 90%
CDK6/cyclinD3(h); batch_name=ASAP-0008418-001
  remaining activity at 10 µM: 105%

## CC(C)[C@H](Nc1ncnc2[nH]c(-c3cnn(C)c3C#N)cc12)c1ccc2c(n1)OCCO2 [ASAP-0010715]
beta1 (h)
  perc_inhibition (% inhibition of the binding of a ligand specific for each target): 11%
hERG
  IC50: 11 µM
DRAK1(h); batch_name=ASAP-0010715-002
  remaining activity at 10 µM: 105%
MAPKAP-K2(h); batch_name=ASAP-0010715-002
  remaining activity at 10 µM: 115%
ASK1(h); batch_name=ASAP-0010715-002
  remaining activity at 10 µM: 106%
CDK6/cyclinD3(h); batch_name=ASAP-0010715-002
  remaining activity at 10 µM: 102%
BZD (central)
  perc_inhibition (% inhibition of the binding of a ligand specific for each target): -2%

## CC(C)[C@@H](Nc1ncnc2[nH]c(-c3cnn(C)c3C#N)cc12)c1ccc2c(n1)OCCO2 [ASAP-0010716]
beta1 (h)
  perc_inhibition (% inhibition of the binding of a ligand specific for each target): -2%
hERG
  IC50: 10.1 µM
DRAK1(h); batch_name=ASAP-0010716-002
  remaining activity at 10 µM: 108%
PKCθ(h); batch_name=ASAP-0010716-002
  remaining activity at 10 µM: 111%
PKCα(h); batch_name=ASAP-0010716-002
  remaining activity at 10 µM: 99%
MAPKAP-K2(h); batch_name=ASAP-0010716-002
  remaining activity at 10 µM: 114%
ASK1(h); batch_name=ASAP-0010716-002
  remaining activity at 10 µM: 108%
BZD (central)
  perc_inhibition (% inhibition of the binding of a ligand specific for each target): 8%

## CNCc1cc(-c2cc3c(N[C@@H](c4ccc5c(c4)S(=O)(=O)CCC5)C(C)C)ncnc3[nH]2)co1 [ASAP-0011176]
beta1 (h)
  perc_inhibition (% inhibition of the binding of a ligand specific for each target): -4%
hERG
  perc_inhibition_top_conc: 26.0%
  IC50: > 30 µM
DRAK1(h); batch_name=ASAP-0011176-002
  remaining activity at 10 µM: 86%
PKCθ(h); batch_name=ASAP-0011176-002
  remaining activity at 10 µM: 106%
PKCα(h); batch_name=ASAP-0011176-002
  remaining activity at 10 µM: 99%
MAPKAP-K2(h); batch_name=ASAP-0011176-002
  remaining activity at 10 µM: 106%
CDK6/cyclinD3(h); batch_name=ASAP-0011176-002
  remaining activity at 10 µM: 92%
BZD (central)
  perc_inhibition (% inhibition of the binding of a ligand specific for each target): 28%

## Cn1ncc(-c2cc3c(N[C@@H](c4ccc5c(n4)OCCO5)C(C)(C)C)ncnc3[nH]2)c1C#N [ASAP-0011221]
beta1 (h)
  perc_inhibition (% inhibition of the binding of a ligand specific for each target): 11%
hERG
  IC50: 19.5 µM
DRAK1(h); batch_name=ASAP-0011221-002
  remaining activity at 10 µM: 108%
PKCθ(h); batch_name=ASAP-0011221-002
  remaining activity at 10 µM: 96%
PKCα(h); batch_name=ASAP-0011221-002
  remaining activity at 10 µM: 87%
MAPKAP-K2(h); batch_name=ASAP-0011221-002
  remaining activity at 10 µM: 110%
ASK1(h); batch_name=ASAP-0011221-002
  remaining activity at 10 µM: 108%
BZD (central)
  perc_inhibition (% inhibition of the binding of a ligand specific for each target): -5%

## COc1ccc([C@H](Cc2nnn[nH]2)NC(=O)c2ncnc3[nH]ccc23)cc1 [ASAP-0015381]
beta1 (h)
  perc_inhibition (% inhibition of the binding of a ligand specific for each target): -3%
hERG
  perc_inhibition_top_conc: 27.0%
  IC50: > 30 µM
PKCθ(h); batch_name=ASAP-0015381-001
  remaining activity at 10 µM: 91%
PKCα(h); batch_name=ASAP-0015381-001
  remaining activity at 10 µM: 93%
MAPKAP-K2(h); batch_name=ASAP-0015381-001
  remaining activity at 10 µM: 102%
ASK1(h); batch_name=ASAP-0015381-001
  remaining activity at 10 µM: 103%
CDK6/cyclinD3(h); batch_name=ASAP-0015381-001
  remaining activity at 10 µM: 102%
BZD (central)
  perc_inhibition (% inhibition of the binding of a ligand specific for each target): 0%
